The text below walks through data of article PMC3859608, “C-Terminus of the B-Chain of Relaxin-3 Is Important for Receptor Activity” (PLoS ONE, 2013).

Entries after “also recorded” stand apart in the source; their conditions may differ.

Assay [1] concerns the target T1, RXFP3 (Homo sapiens, UniProt Q9NSD7).
T1 construct: expressed in transfected cells
T1 sequence (Q9NSD7 1-469): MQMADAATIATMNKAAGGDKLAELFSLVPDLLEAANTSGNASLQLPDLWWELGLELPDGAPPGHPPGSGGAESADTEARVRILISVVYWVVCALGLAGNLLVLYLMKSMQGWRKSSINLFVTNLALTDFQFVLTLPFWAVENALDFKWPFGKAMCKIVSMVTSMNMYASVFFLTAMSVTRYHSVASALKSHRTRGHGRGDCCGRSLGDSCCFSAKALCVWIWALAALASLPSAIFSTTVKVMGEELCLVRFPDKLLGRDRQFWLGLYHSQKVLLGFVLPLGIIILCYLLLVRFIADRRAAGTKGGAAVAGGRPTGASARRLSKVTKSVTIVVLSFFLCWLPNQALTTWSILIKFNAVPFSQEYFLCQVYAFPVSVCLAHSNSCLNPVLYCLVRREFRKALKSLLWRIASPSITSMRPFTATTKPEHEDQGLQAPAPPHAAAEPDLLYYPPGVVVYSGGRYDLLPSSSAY
As to conditions: in presence of orthosteric agonist; H3 amide or H3 acid; cited from earlier work. An excerpt:
In this endeavour, a small molecule, 135PAM1, has recently been discovered by Alvarez-Jaimes et al. They reported that it was an allosteric modulator of RXFP3 that worked in the presence of an orthosteric agonist, H3 relaxin.

Assay [2] has as its target T1, RXFP3. The experiment in a line: cAMP activity (inhibition of forskolin-induced cAMP), CHO-K1 cells expressing RXFP3. The format is cell-based. As to conditions: CHO-K1 RXFP3, pCRE-β-galactosidase reporter; forskolin 1 µM (method) / 5 µM (Fig. 2 legend); peptide 0.01 nM – 1 µM; mean ± SEM, n = 3, triplicate determinations; ** p<0.01 vs H3 acid (H3 amide, H3 A-acid); read-out: RXFP3 cAMP pEC50 (converted). Here is the method:
(§1) The ability of the peptides to activate the receptors RXFP3/RXFP4 was assessed by measuring their influence on cAMP signalling in CHO-K1 cells stably expressing RXFP3 or RXFP4 transfected with a pCRE-β-galactosidase reporter gene construct as previously described. A single concentration of forskolin was used to stimulate cAMP signalling in cells expressing RXFP3 (1 µM) and RXFP4 (5 µM) and peptide induced inhibition of cAMP signalling was measured by adding increasing concentrations of the peptides (0.01 nM – 1 µM). The ability of the peptides to inhibit forskolin-induced cAMP response (pEC50) was measured and expressed as mean ± SEM from three independent experiments with triplicate determinations within each assay. The inhibition curves were fitted to a single-site sigmoidal dose-response curve with variable slope using Graphpad PRISM 5.
(§2) Figure 2 Receptor binding affinity (pKi) and cAMP activity (pEC-50) curves of H3 relaxin and its variants at RXFP3. A) Competition binding curves of H3 relaxin variants using a single concentration of Eu-I5/R3 (0.5 nM) in the presence of increasing concentrations of the H3 relaxin peptides. B) RXFP3 activation curves of H3 relaxin variants measured in a cAMP activity assay in the presence of 5 µM forskolin. The data were expressed as mean ± SEM. from at least three independent experiments.

Assay [3] has as its target T1, RXFP3. The experiment in a line: Competition binding, Eu-labelled I5/R3, CHO-K1 cells expressing RXFP3. The conditions noted are these: CHO-K1 cells stably expressing RXFP3; Eu-I5/R3 0.5 nM; one site competition fit; mean ± SEM, n in parentheses in cell (3; H3 amide 4), triplicate determinations; ** p<0.01 vs H3 acid (H3 amide, H3 A-acid); read-out: RXFP3 Eu-H3/I5 pKi (converted). Here is the method:
(§3) The receptor binding affinity of the peptides was measured using CHO-K1 cells stably expressing RXFP3 and RXFP4. The competition binding assays were carried out as previously described, [27]. Briefly, a single concentration of Eu-labelled I5/R3 (0.5 nM) or Eu-labelled mouse INSL5 (2.5 nM) were used in presence of increasing concentration of peptides. The data were analyzed using GraphPad PRISM 5 (GraphPad Inc., San Diego, USA). The europium binding curves were fitted to a one site competition curve and the pKi values were expressed as the mean ± SEM of at least three independent experiments with triplicate determinations within each assay.
as §2

Assay [4] deals with T2, RXFP4 (Homo sapiens, UniProt Q8TDU9).
T2 construct: expressed in transfected cells
T2 sequence (Q8TDU9 whole entry, species assumed): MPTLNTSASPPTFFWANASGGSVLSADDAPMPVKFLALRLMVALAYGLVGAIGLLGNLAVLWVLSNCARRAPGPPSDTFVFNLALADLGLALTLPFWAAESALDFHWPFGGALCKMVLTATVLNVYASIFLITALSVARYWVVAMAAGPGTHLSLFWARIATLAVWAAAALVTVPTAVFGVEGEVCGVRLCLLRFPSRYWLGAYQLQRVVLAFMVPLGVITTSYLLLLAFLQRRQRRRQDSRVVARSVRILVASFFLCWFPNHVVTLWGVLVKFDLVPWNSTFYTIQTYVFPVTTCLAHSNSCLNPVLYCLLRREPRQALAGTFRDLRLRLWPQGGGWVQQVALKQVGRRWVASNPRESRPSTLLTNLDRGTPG
Nature of the assay: Competition binding, Eu-labelled mouse INSL5, CHO-K1 cells expressing RXFP4. As to conditions: CHO-K1 cells stably expressing RXFP4; Eu-labelled mouse INSL5 2.5 nM; one site competition fit; mean ± SEM, n = 3, triplicate determinations; vs H3 acid: * H3 amide, ** p<0.01 H3 A-acid; read-out: RXFP4 Eu-INSL5 pKi (converted). Here is the method: as §3
(§4) Figure 3 Receptor binding affinity (pKi) and cAMP activity (pEC-50) curves of H3 relaxin and its variants at RXFP4. A) Competition binding curves of H3 relaxin variants at RXFP4 using a single concentration of Eu-INSL5 (2.5 nM) in the presence of increasing concentrations of the H3 relaxin peptides. B) RXFP4 activation curves of H3 relaxin variants measured in a cAMP activity assays in the presence of 1 µM forskolin. The data were expressed as mean ± SEM from at least three independent experiments.

Assay [5] concerns the target T2, RXFP4. The experiment in a line: cAMP activity (inhibition of forskolin-induced cAMP), CHO-K1 cells expressing RXFP4. Type of assay: cell-based. As to conditions: CHO-K1 RXFP4, pCRE-β-galactosidase reporter; forskolin 5 µM (method) / 1 µM (Fig. 3 legend); peptide 0.01 nM – 1 µM; mean ± SEM, n = 3, triplicate determinations; vs H3 acid: * H3 amide, ** p<0.01 H3 A-acid; read-out: RXFP4 cAMP pEC50 (converted). The method, then: as §1, §4

The target of assay [6] is T1, RXFP3. As to conditions: cited from earlier work. An excerpt:
(§5) It is a neuropeptide that is primarily expressed in the brain with the highest level detected in the nucleus incertus (NI) of the mouse, [8], rat, macaque and human. Neurons from the NI project to many regions of the brain where its distribution overlaps w ...

A further assay concerns RXFP1. The conditions noted are these: cited from earlier work.
Source text: as §5

The target in assay [7] is T2, RXFP4. The conditions noted are these: sentence cites ref 7; cited from earlier work.
Source text: as §5

For assay [8], the target named is T2, RXFP4. The conditions noted are these: both A and B chain C-termini amidated vs acid; cited from earlier work. An excerpt:
Relaxin-3 is closely related to insulin-like peptide 5 (INSL5) as they both belong to the same branch in the phylogenetic tree of the relaxin family. In addition, the native receptors of relaxin-3 and INSL5, RXFP3 and RXFP4 respectively, belong to the same class of G-protein coupled receptors. On the basis of such close relationship between ligands (relaxin-3 and INSL5) and receptors (RXFP3 and RXFP4), it is most likely that relaxin-3 interacts with RXFP3 in a similar way to INSL5 interaction with RXFP4. Therefore, we tested all four H3 relaxin analogues on RXFP4. As expected, the H3 acid pept ... || The bioactivity of many polypeptide hormones often requires a form of post-translational modification of their precursors. An example of a widespread modification is C-terminal amidation which often leads to an increase in bioactivity of peptides [32]–[35]. In some cases, amidation of the C-terminus has been reported to have detrimental effect on the activity of peptides, [36]. […] In the case of relaxin family peptides, H2 relaxin and INSL3, both p ...

As to `COc1ccc2[nH]cc(CCN(Cc3ccc(Cl)c(Cl)c3)C(=O)Nc3cc(C(F)(F)F)cc(C(F)(F)F)c3)c2c1` [135PAM1], the “allosteric activity of 135PAM1, dependence on H3 relaxin C-terminus” value on RXFP3 [1] was “active only when used with the non-native amidated form of H3 relaxin; also recorded: unable to act in the presence of the native form (acid) of H3 relaxin”.

As for `CC[C@H](C)[C@@H]1NC(=O)[C@H](Cc2ccccc2)NC(=O)[C@H](CCC(=O)O)NC(=O)[C@H](CCCNC(=N)N)NC(=O)CNC(=O)[C@@H](NC(=O)[C@H](CC(C)C)NC(=O)[C@H](CCCNC(=N)N)NC(=O)[C@@H](NC(=O)CNC(=O)[C@H](Cc2ccc(O)cc2)NC(=O)[C@@H]2CCCN2C(=O)[C@H](C)NC(=O)[C@H](C)NC(=O)[C@@H](N)CCCNC(=N)N)C(C)C)CSSC[C@@H]2NC(=O)[C@@H](NC(=O)[C@H](CO)NC(=O)[C@H](CO)NC(=O)[C@H](CO)NC(=O)[C@H](CC(C)C)NC(=O)CNC(=O)[C@H](C)NC(=O)[C@H](CC(C)C)NC(=O)[C@@H](NC(=O)[C@@H](N)CC(=O)O)C(C)C)CSSC[C@H](NC(=O)CNC(=O)[C@H](Cc3c[nH]c4ccccc34)NC(=O)[C@H](CCCCN)NC2=O)C(=O)N[C@@H](CO)C(=O)N[C@@H](CCCCN)C(=O)N[C@@H](CO)C(=O)N[C@@H](CCC(=O)O)C(=O)N[C@@H]([C@@H](C)CC)C(=O)N[C@@H](CO)C(=O)N[C@@H](CO)C(=O)N[C@@H](CC(C)C)C(=O)N[C@H](C(N)=O)CSSC[C@@H](C(=O)NCC(=O)NCC(=O)N[C@@H](CO)C(=O)N[C@@H](CCCNC(=N)N)C(=O)N[C@@H](Cc2c[nH]c3ccccc23)C(N)=O)NC(=O)[C@H]([C@@H](C)O)NC(=O)[C@H](Cc2ccccc2)NC(=O)[C@H]([C@@H](C)CC)NC(=O)[C@H](C(C)C)NC(=O)[C@H](C)NC(=O)[C@H](CCCNC(=N)N)NC1=O` [H3 amide], the EC50 is 7.24 nM at RXFP3 [2] and 4.17 nM at RXFP4 [5]. Further, the Ki is 158 nM on RXFP3 [3] and 39.8 nM at RXFP4 [4].

With “H3 relaxin: neuropeptide with two chains (A and B) connected by three disulfide bonds”, the “binding and activation of RXFP3” value in the assay with RXFP3 [6] was “binds and activates its cognate receptor”. Moreover, the “interaction with RXFP1” value in the assay on RXFP1 is on record as “with high affinity”. In the assay with RXFP4 [7], the “interaction with RXFP4” value is “with high affinity”.

Regarding “INSL5: insulin-like peptide 5; native ligand of RXFP4 (Insulin-like peptide INSL5 B … KESVRLCGLEYIRTVIYICASSRW; Insulin-like peptide INSL5 A … QDLQTLCCTDGCSMTDLSALC; UniProt Q9Y5Q6 23-46; Q9Y5Q6 115-135, looked up)”, the “C-terminus requirement for RXFP4 activity of INSL5” value with RXFP4 [8] is given as “need to be an acid for full RXFP4 activity; also recorded: C-termini were required to be free (acid) for high RXFP4 activity”.
